Results as given in patent publication US20250127777A1, “DUAL INHIBITION OF MDM2 AND EIF2-ALPHA INDUCES CELL DEATH IN MULTIPLE CANCER CELL TYPES” (The Regents of the University of Colorado, A Body Corporate, priority 2022, published 2025).

Tests used:
K1 cells [1] = assay: Annexin V-FITC/PI apoptosis assay by flow cytometry; assay type: cell-based; settings: 10 μM nutlin-3a, 25 μM GSK2830371, or both, 72 hours
Description: (§1) TPC1, K1, HCT116, MCF7, SJSA, and HEK293FT cells were cultivated in RPMI (TPC1, SJSA), DMEM (K1, MCF7, HEK293FT), and McCoy's (HCT116) media (Gibco, Thermo Fisher Scientific) supplemented with 10% fetal bovine serum (Peak Serum) and 1% antibiotic-antimycotic mixture (Gibco). Cells were plated a day before the treatment and maintained in a humidified atmosphere with 5% of CO2 at 37° C. Both TPC1 and K1 lines were gifts from Dr. Rebecca Schweppe, University of Colorado Anschutz Medical Campus (CU-AMC). Cell line identity has been verified by short tandem repeats profiling at the Cell Technologies Shared Resource, CU-AMC. Colorectal cancer organoid cultures (CRC172) were obtained from the Enteroid Stem Cell Core facility at CU-AMC.
(§2) The fraction of apoptotic cells was determined by Annexin V-FITC/PI assay. Briefly, cells harvested by trypsinization were resuspended in Annexin-V binding buffer (10 mM HEPES pH 7.4, 140 mM NaCl, 2.5 mM CaCl2)). Approximately 2*10^5 cells were labeled with Annexin-V-FITC (Invitrogen) and PI (10 μg/ml, Millipore-Sigma) for 15 minutes in the dark before flow cytometric analysis (Accuri C6, Becton Dickinson). To analyze mitochondrial membrane potential (44m) cells were trypsinized and resuspended in cultivation media. An aliquot of approximately 5*10^5 cells per sample was mixed with tetramethylrhodamine, ethyl ester, perchlorate (TMRE, Thermo Fisher, 100 nM final concentration) solution, incubated for 10 minutes in the dark, and analyzed by flow cytometer.

TPC1 cells [2] = assay: as above; assay type: cell-based; settings: 10 μM nutlin-3a, 25 μM GSK2830371, or both, 72 hours
Description: as §1, §2

p53 = assay: Western blot of p53 in thyroid carcinoma cells; assay type: cell-based; settings: TPC1 and K1 cells; 10 μM nutlin-3a, 25 μM GSK2830371; 24 hours
Description: (§3) Following a brief sonication (2.5W, 5 sec) and heat denaturation (90° C., 5 min), total protein concentration in whole cell lysates was measured by a BCA Protein Assay Kit (Pierce, Thermo Fisher Scientific). 20 μg of protein per sample was resolved by SDS-PAGE and transferred onto a 0.45 μm PVDF membrane (0.2 μm for ATF3 detection). Membranes were incubated in blocking buffer (5% fat-free milk in wash buffer—20 mM Tris pH 7.6, 150 mM NaCl, 0.2% Tween 20) for an hour at RT and o/n at 4° C. with the primary antibody diluted in a fresh blocking buffer. Next day membranes were washed three times for 10 min in the wash buffer, incubated with HRP-conjugated secondary antibody for an hour at RT, and washed again three times in the wash buffer. SuperSignal West Pico Plus Chemiluminescence Substrate (Pierce) was used for detection and digital images were acquired using an ImageQuant LAS 4000 (GE Healthcare Life Sciences).

PPM1D = assay: Western blot of PPM1D expression; assay type: cell-based; settings: 25 μM GSK2830371; 24 hours
Description: as §3, with “Protein samples were prepared with cells washed twice with PBS and lysed in modified Laemmli buffer (Laemmli, 1970) (1% w/v SDS, 10% w/v glycerol, 100 mM Tris pH 7.2, protease (complete Mini, Roche) and phosphatase (PhosSTOP, Roche) inhibitors). Following” for “Following”

K1 cells [3] = assay: RNA-seq transcriptome analysis (DESeq2); assay type: cell-based, Human; settings: nutlin 10 μM, GSK2830371 25 μM, or both, 24 hours
Description: (§4) TPC1 and K1 cells were plated at 2*104/cm2 and treated for 24 hours as indicated. Following the treatment period, cells were washed with ice-cold PBS and lysed in TRI Reagent (Millipore Sigma). Quality of the extracted RNA was assessed by Agilent Bioanalyzer 2100 using RNA 6000 Pico chips (Agilent). Single-end 150 bp sequencing of the poly-A (+)-enriched RNA was carried out on the Illumina HiSeq 4000 platform by the Genomics Core facility at the University of Colorado Anschutz.
(§5) Quality of the sequencing data was analyzed using FASTQC (version 0.11.2, available at the website www.bioinformatics.babraham.ac.uk/projects/fastqc and presence of common sequencing contaminants was assessed by FastQ Screen (v0.4.4) available at the website www.bioinformatics.babraham.ac.uk/projects/fastq_screen/. Bases with low quality (Q<10) were 3′ end trimmed and reads shorter than 30 nt were discarded using the Fastx toolkit (v0.0.13.2). Reads were aligned to a GRCh37/hg19 Human reference using TopHat2 (v2.0.13,-b2-sensitive-keep-fasta-order-no-coverage-search-max-multihits 10-library-type fr-firststrand) (Kim et al., 2013) with the UCSC hg19 GTF annotation file provided in the iGenomes UCSC hg19 bundle available at the website: support.illumina.com/sequencing/sequencing_software/igenome.html. Aligned reads with MAPQ<10 quality were removed using SAMtools (v0.1.19). Alignments were then sorted by coordinates, and duplicates were identified using Picard (v1.129). Quality assessment of final mapped reads was conducted using RSeQC (v2.6) (Wang et al., 2012). Gene-level counts were obtained using HTSeq (v0.6.1) (Anders et al., 2015) with the following options (-stranded=reverse -minaqual=10-type=exon-idattr=gene_id_mode=intersection-nonempty) using the iGenomes UCSC hg19 GTF annotation file. Differential gene expression was evaluated using DESeq2 (version 1.6.3) (Love et al., 2014) in R (version 3.1.0), using q<0.05 (FDR<5%) and fold-change>1.5 (Up) or <1/1.5 (Down) as cutoffs for differentially expressed genes. Genome browser snapshots were generated from bedGraph or tgv files using IGV genome viewer (v2.8.10) (Thorvaldsdottir et al., 2013).

TPC1 cells [4] = assay: RNA-seq transcriptome analysis (DESeq2); assay type: cell-based, Human; settings: nutlin 10 μM, GSK2830371 25 μM, or both, 24 hours
Description: as §4, §5

TPC1 and HCT116 = assay: Polysome profiling (polysome/monosome ratio); assay type: cell-based; settings: 24 hours
Description: TPC1 and HCT116 were plated at 6*104/cm2 on 143 cm2 dishes, cultivated o/n, and treated accordingly. Ten minutes before the harvest cultivation media was supplemented with cycloheximide (CHX) at final concentration of 100 μg/ml. Next, cells were washed twice with ice-cold PBS with 100 μg/ml CHX and lysed in polysome preparation lysis buffer (20 mM HEPES pH 7.4, 15 mM MgCl2, 200 mM NaCl, 1% Triton X-100, 100 μg/ml CHX, 2 mM DTT, and 100U SuperaseIN). Lysates were cleared of debris by centrifugation at 20,000g, 4° C. for 10 minutes. Total nucleic acid content in lysates was measured by absorbance at 260 nm and used for sample concentration normalization. Next, 500 μl of the lysate was loaded on 10-60% sucrose gradients in SW41 tubes in lysis buffer lacking Triton X-100. These gradients were prepared using a BioComp system and chilled to 4° C. before use. Samples were ultracentrifuged at 36,000 rpm for 3 hours and 10 min, at 4° C., then samples were fractionated using a BioComp system, monitoring absorbance at 260 nm while collecting fractions of approximately 0.4 ml each.

cell viability = assay: Cell viability after single-agent treatment; assay type: cell-based
ATF3 and ATF4 = assay: Western blot of ATF3 and ATF4 protein; assay type: cell-based; settings: TPC1 cells; nelfinavir alone
Description: as §3, with “Protein samples were prepared with cells washed twice with PBS and lysed in modified Laemmli buffer (Laemmli, 1970) (1% w/v SDS, 10% w/v glycerol, 100 mM Tris pH 7.2, protease (complete Mini, Roche) and phosphatase (PhosSTOP, Roche) inhibitors). Following” for “Following”

elF2α = assay: Western blot of elF2α phosphorylation; assay type: cell-based; settings: 10 μM nutlin-3a, 25 μM GSK2830371, 20 μM nelfinavir; multiple cell lines
Description: as §3, with “Protein samples were prepared with cells washed twice with PBS and lysed in modified Laemmli buffer (Laemmli, 1970) (1% w/v SDS, 10% w/v glycerol, 100 mM Tris pH 7.2, protease (complete Mini, Roche) and phosphatase (PhosSTOP, Roche) inhibitors). Following” for “Following”

caspase 3 = assay: Western blot of caspase 3 cleavage; assay type: cell-based; settings: TPC1 cells; 20 μM nelfinavir, alone or with 10 μM nutlin-3a
Description: as §3

diverse cell types = assay: Annexin V-FITC/PI apoptosis assay, elF2α plus MDM2 inhibition; assay type: cell-based
Description: as §1
as §2, with “To analyze mitochondrial membrane potential (44m) cells were trypsinized and resuspended in cultivation media.” left out

HCT116 xenograft tumors = assay: HCT116 xenograft tumor model; assay type: in vivo; settings: nude mice, 200 mg/kg nelfinavir and/or 200 mg/kg milademetan
Description: Athymic nude mice (NU/NU) weighting 20 to 30 grams and being 8-12 weeks of age (Charles River Labs) were housed in cages under standard conditions (22° C., 50% relative humidity, 12-h light/dark cycles) and provided with food and water ad libitum. Next, […] exponentially growing HCT116 cells resuspended in 100 μl Matrigel/PBS (5 mg/ml final) were injected subcutaneously into both flanks. Tumors grew for 10-14 days before treatment initiation. Experimental animals were given 200 mg/kg nelfinavir and/or 200 mg/kg Milademetan (Rain Therapeutics) by oral gavage once daily, 5 days a week. Tested compounds were prepared in a mixture of 2% Klucel (hydroxypropyl cellulose), 0.5% Tween 80, and 35% ethanol. Tumor volumes (v) were estimated daily, 5 days a week using caliper measurements and formula v=(I×w^2)/2, where I represents the greatest length of the tumor and w is tumor width in the perpendicular axis. Average volumes of the right and left flank tumors were used for plotting and calculations. Equal ratios of male and female mice were used in treatment groups (5 males and 5 females). All in vivo experiments were approved by the Institutional Animal Care and Use Committee at the CU-AMC (IACUC protocol 00432).
After indicated treatments, cells were washed with PBS, total RNA was extracted using Trizol substitute (38% Phenol, saturated, pH 4.3, 0.8 M guanidine thiocyanate, 0.4 M ammonium thiocyanate, 0.1 M sodium acetate, pH 5.0, 5% glycerol), and converted to cDNA with High-Capacity cDNA Reverse Transcription Kit (Thermo Fisher). Next, diluted cDNA was used in quantitative PCR reaction using SYBR Select Master Mix for CFX (Thermo Fisher). Detected mRNA levels were normalized to 18s rRNA values.
Tumors fixed in 4% formaldehyde were transferred to 70% ethanol and embedded in paraffin at the Pathology Shared Resource-Research Histology, University of Colorado Anschutz Medical Campus. Three tumors from each experimental group were sectioned, stained with DAPI and Ki67 primary antibody using Akoya Opal technology (Akoya Biosciences), and scanned at six representative regions with Vectra 3.0 (Akoya Biosciences) at the Human Immune Monitoring Shared Resource (University of Colorado Anschutz). Next, InForm image analysis software (Akoya Biosciences) was used for automated identification of nuclei based on the DAPI signal. Ki67 nuclear fluorescence was outputted for all nuclei.

SMILES	apoptosis (Annexin V-FITC/PI) (K1 cells [1])	apoptosis (Annexin V-FITC/PI) (TPC1 cells [2])	p53 stabilization (p53)	PPM1D expression (PPM1D)	differentially expressed mRNAs versus vehicle (K1 cells [3])	differentially expressed mRNAs versus vehicle (TPC1 cells [4])	polysome/monosome ratio (TPC1 and HCT116)	effects on cell viability when administered alone (cell viability)	ATF4 protein stabilization (ATF3 and ATF4)	elF2α phosphorylation (elF2α)	caspase 3 cleavage / activation (caspase 3)	synergy with small molecule inhibitors of MDM2 to elicit p53-dependent cell death (diverse cell types)	animal survival (Kaplan Meier; humane endpoint tumor size>1000 mm^3) (HCT116 xenograft tumors; oral gavage)	tumor growth (HCT116 xenograft tumors; oral gavage once daily, 5 days a week)
Cc1ncc(Cl)cc1NCc1ccc(C(=O)N[C@@H](CC2CCCC2)C(=O)NC2CC2)s1 [GSK2830371]	does not stabilize p53 or induce apoptosis	does not stabilize p53 or induce apoptosis	does not stabilize p53	reduces PPM1D expression	had little impact on the transcriptome	had little impact on the transcriptome	decreases in the polysome/monosome ratio	limited effects on cell viability	–	–	–	–	–	–
Cc1c(O)cccc1C(=O)N[C@@H](CSc1ccccc1)[C@H](O)CN1C[C@H]2CCCC[C@H]2C[C@H]1C(=O)NC(C)(C)C [nelfinavir]	–	–	–	–	–	–	decreased the polysome/monosome ratio	–	stabilized ATF4	induced elF2α phosphorylation	did not induced caspase 3 cleavage	synergize with small molecule inhibitors of MDM2 to elicit p53-dependent cell death	had to be sacrificed at the humane endpoint	Tumors continued to grow
